In patent US10766869B2, “Triazoles for the treatment of demyelinating dieases” (Vertex Pharmaceuticals Incorporated, priority 2015, dated 2020):

System: primary rat mixed cortical cells
Assay: In vitro myelination assay (MBP positive myelin strands, fold myelin pixels above background)
Format: cell-based
Conditions: Rattus norvegicus, relative to baseline of no added compound, read-out: Fold myelin pixels above background; for fold induction at 1 µM: 1.0 μM compound; for fold induction at 10 µM: 10.0 μM compound
In short: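 P1 rat mixed cortical cultures (neurons, OPCs, oligodendrocytes, astrocytes, microglia) grown 14 days at 37 °C with compound, half-medium refreshed with compound on days 6 and 10. Fixed cells stained for MBP; MBP-positive myelin strand pixels per well quantified by automated imaging, reported as fold over no-compound baseline at 1.0 and 10.0 μM.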

Row | SMILES | fold induction at 1 µM | fold induction at 10 µM
1 | Fc1cccc(-n2cnc(Nc3cc(C4CC4)cc(N4CCN(C5COC5)CC4)c3)n2)c1 [Compound 462, N-[3-cyclopropyl-5-[4-(oxetan-3-yl)piperazin-1-yl]phenyl]-1-(3-fluorophenyl)-1,2,4-triazol-3-amine] | 100 to 1000 | ≤ 1
2 | CCc1cc(Nc2ncn(-c3cccc(SC)c3)n2)cc(N2CCN(C3COC3)CC2)c1 [Compound 463, N-[3-ethyl-5-[4-(oxetan-3-yl)piperazin-1-yl]phenyl]-1-(3-methylsulfanylphenyl)-1,2,4-triazol-3-amine] | 1 to 10 | ≤ 1
3 | COCC1CCN(c2cc(C)cc(Nc3ncn(-c4ccncn4)n3)c2)CC1 [Compound 464, N-[3-[4-(methoxymethyl)-1-piperidyl]-5-methyl-phenyl]-1-pyrimidin-4-yl-1,2,4-triazol-3-amine] | 10 to 100 | 100 to 1000
4 | C1=C(c2cc(Nc3ncn(-c4ccccc4)n3)cc(N3CCOCC3)c2)COC1 [Compound 465, N-[3-(2,5-dihydrofuran-3-yl)-5-morpholino-phenyl]-1-phenyl-1,2,4-triazol-3-amine] | 100 to 1000 | ≤ 1
5 | Cc1cc(Nc2ncn(-c3cc(F)cc(F)c3)n2)cc(C2CCCN(C3CC3)C2)c1 (stereo not drawn) [Compound 466, N-[3-(1-cyclopropyl-3-piperidyl)-5-methyl-phenyl]-1-(3,5-difluorophenyl)-1,2,4-triazol-3-amine] | 100 to 1000 | ≤ 1
6 | Cc1cc(Nc2ncn(-c3cc(F)cc(N4CC[C@@H](F)C4)c3)n2)cc(N2CCN(C3COC3)CC2)c1 [Compound 467, 1-[3-fluoro-5-[(3R)-3-fluoropyrrolidin-1-yl]phenyl]-N-[3-methyl-5-[4-(oxetan-3-yl)piperazin-1-yl]phenyl]-1,2,4-triazol-3-amine] | 100 to 1000 | 10 to 100
7 | CCc1cc(Nc2ncn(-c3cccc(F)c3)n2)cc(N2CCN(C3COC3)CC2)c1 [Compound 468, N-[3-ethyl-5-[4-(oxetan-3-yl)piperazin-1-yl]phenyl]-1-(3-fluorophenyl)-1,2,4-triazol-3-amine] | 100 to 1000 | 1 to 10
8 | Cc1cc(Nc2ncn(-c3cc(F)ccc3F)n2)cc(N2CCN(C3(C)COC3)CC2)c1 [Compound 469, 1-(2,5-difluorophenyl)-N-[3-methyl-5-[4-(3-methyloxetan-3-yl)piperazin-1-yl]phenyl]-1,2,4-triazol-3-amine] | 100 to 1000 | 10 to 100
9 | Cc1cc(N2CCN(C3COC3)CC2)cc(Nc2ncn(-c3cnccn3)n2)c1C [Compound 470, N-[2,3-dimethyl-5-[4-(oxetan-3-yl)piperazin-1-yl]phenyl]-1-pyrazin-2-yl-1,2,4-triazol-3-amine] | 10 to 100 | 100 to 1000
10 | COc1c(C)cc(N2CCN(C3COC3)CC2)cc1Nc1ncn(-c2cnccn2)n1 [Compound 471, N-[2-methoxy-3-methyl-5-[4-(oxetan-3-yl)piperazin-1-yl]phenyl]-1-pyrazin-2-yl-1,2,4-triazol-3-amine] | 1 to 10 | ≤ 1
11 | Cc1cc(Nc2ncn(-c3cc(F)cc(F)c3)n2)cc(NC2CCN(C3COC3)C2)c1 (stereo not drawn) [Compound 472, N3-[1-(3,5-difluorophenyl)-1,2,4-triazol-3-yl]-5-methyl-N1-[1-(oxetan-3-yl)pyrrolidin-3-yl]benzene-1,3-diamine] | 100 to 1000 | ≤ 1
12 | Fc1cc(F)cc(-n2cnc(Nc3cc(N4CCOCC4)cc(C(F)(F)F)c3)n2)c1 [Compound 475, 1-(3,5-difluorophenyl)-N-[3-morpholino-5-(trifluoromethyl)phenyl]-1,2,4-triazol-3-amine] | 100 to 1000 | 1000 to 10000
13 | Cc1cc(Nc2ncn(-c3cc(C)ccc3F)n2)cc(N2CCN(C3COC3)CC2)c1 [Compound 476, 1-(2-fluoro-5-methyl-phenyl)-N-[3-methyl-5-[4-(oxetan-3-yl)piperazin-1-yl]phenyl]-1,2,4-triazol-3-amine] | 10 to 100 | 10 to 100
14 | CN1CCN(c2cc(Nc3ncn(-c4ccc(F)c(F)c4)n3)cc(Cl)n2)CC1 [Compound 477, 2-chloro-N-[1-(3,4-difluorophenyl)-1,2,4-triazol-3-yl]-6-(4-methylpiperazin-1-yl)pyridin-4-amine] | 10 to 100 | ≤ 1
15 | Cc1cc(Nc2ncn(-c3ccc(OC(F)(F)F)cc3)n2)cc(N2CCN(C3COC3)CC2)c1 [Compound 478, N-[3-methyl-5-[4-(oxetan-3-yl)piperazin-1-yl]phenyl]-1-[4-(trifluoromethoxy)phenyl]-1,2,4-triazol-3-amine] | 1 to 10 | 1 to 10
16 | Cc1cc(Nc2ncn(-c3ccccc3)n2)cc(N2C[C@@H]3C[C@H]2CN3C)c1 [Compound 479, N-[3-methyl-5-[(1S,4S)-5-methyl-2,5-diazabicyclo[2.2.1]heptan-2-yl]phenyl]-1-phenyl-1,2,4-triazol-3-amine] | 100 to 1000 | ≤ 1

Row | SMILES | fold induction at 1 µM | fold induction at 10 µM
17 | Cc1cc(Nc2ncn(-c3cc(F)cc(N4CCC(CO)C4)c3)n2)cc(N2CCN(C3COC3)CC2)c1 (stereo not drawn) [Compound 480, [1-[3-fluoro-5-[3-[3-methyl-5-[4-(oxetan-3-yl)piperazin-1-yl]anilino]-1,2,4-triazol-1-yl]phenyl]pyrrolidin-3-yl]methanol] | 10 to 100 | ≤ 1
18 | COCC1CCN(c2cc(C)cc(Nc3ncn(-c4ccccc4)n3)c2)CC1 [Compound 481, N-[3-[4-(methoxymethyl)-1-piperidyl]-5-methyl-phenyl]-1-phenyl-1,2,4-triazol-3-amine] | 100 to 1000 | 100 to 1000
19 | Cc1cc(Nc2ncn(-c3cc(F)cc(F)c3)n2)cc(N2CCN(C3CC3)CC2)c1 [Compound 482, N-[3-(4-cyclopropylpiperazin-1-yl)-5-methyl-phenyl]-1-(3,5-difluorophenyl)-1,2,4-triazol-3-amine] | 10 to 100 | 100 to 1000
20 | Cc1cc(Nc2ncn(-c3ccccc3)n2)cc(C2CCN(CC3(C)COC3)CC2)c1 [Compound 483, N-[3-methyl-5-[1-[(3-methyloxetan-3-yl)methyl]-4-piperidyl]phenyl]-1-phenyl-1,2,4-triazol-3-amine] | ≤ 1 | ≤ 1
21 | Cc1cc(Nc2ncn(-c3cc(F)cc(F)c3F)n2)cc(N2CCN(C3COC3)CC2)c1 [Compound 484, N-[3-methyl-5-[4-(oxetan-3-yl)piperazin-1-yl]phenyl]-1-(2,3,5-trifluorophenyl)-1,2,4-triazol-3-amine] | ≤ 1 | ≤ 1
22 | CN1CCN(c2cc(Nc3ncn(-c4ccccc4)n3)cc(C(F)(F)F)c2)CC1 [Compound 486, N-[3-(4-methylpiperazin-1-yl)-5-(trifluoromethyl)phenyl]-1-phenyl-1,2,4-triazol-3-amine] | 100 to 1000 | ≤ 1
23 | Cc1cc(Nc2ncn(-c3cc(F)cc(F)c3)n2)cc([C@]2(O)CCN(C3COC3)C2)c1 [Compound 487, (3R)-3-[3-[[1-(3,5-difluorophenyl)-1,2,4-triazol-3-yl]amino]-5-methyl-phenyl]-1-(oxetan-3-yl)pyrrolidin-3-ol] | 100 to 1000 | 1 to 10
24 | Cc1cc(Nc2ncn(-c3cccc(Cl)n3)n2)cc(N2CCCC2)c1 [Compound 488, 1-(6-chloro-2-pyridyl)-N-(3-methyl-5-pyrrolidin-1-yl-phenyl)-1,2,4-triazol-3-amine] | ≤ 1 | ≤ 1
25 | CCc1cc(Nc2ncn(-c3cnccn3)n2)cc(N2CCN(C3(C)COC3)CC2)c1 [Compound 489, N-[3-ethyl-5-[4-(3-methyloxetan-3-yl)piperazin-1-yl]phenyl]-1-pyrazin-2-yl-1,2,4-triazol-3-amine] | 10 to 100 | 10 to 100
26 | COC[C@H]1CCCN1c1cc(F)cc(-n2cnc(Nc3cc(C)cc(N4CCN(C5COC5)CC4)c3)n2)c1 [Compound 491, 1-[3-fluoro-5-[(2R)-2-(methoxymethyl)pyrrolidin-1-yl]phenyl]-N-[3-methyl-5-[4-(oxetan-3-yl)piperazin-1-yl]phenyl]-1,2,4-triazol-3-amine] | 100 to 1000 | ≤ 1
27 | Fc1ccc(-n2cnc(Nc3cc(C4CC4)nc(N4CC[C@H](F)C4)c3)n2)cc1F [Compound 492, 2-cyclopropyl-N-[1-(3,4-difluorophenyl)-1,2,4-triazol-3-yl]-6-[(3S)-3-fluoropyrrolidin-1-yl]pyridin-4-amine] | 1000 to 10000 | 1000 to 10000
28 | Cc1cc(Nc2ncn(-c3cc(F)cc(F)c3)n2)cc(N2CC(CO)C2)c1 [Compound 493, [1-[3-[[1-(3,5-difluorophenyl)-1,2,4-triazol-3-yl]amino]-5-methyl-phenyl]azetidin-3-yl]methanol] |  | ≤ 1
29 | COC1CN(c2cc(F)cc(-n3cnc(Nc4cc(C5CC5)cc(N5CCN(C6COC6)CC5)c4)n3)c2)C1 [Compound 494, N-[3-cyclopropyl-5-[4-(oxetan-3-yl)piperazin-1-yl]phenyl]-1-[3-fluoro-5-(3-methoxyazetidin-1-yl)phenyl]-1,2,4-triazol-3-amine] | 100 to 1000 | 10 to 100
30 | Cc1cc(Nc2ncn(-c3ccnc(N4CCCCCC4)c3)n2)cc(N2CCN(C)CC2)c1 [Compound 495, 1-[2-(azepan-1-yl)-4-pyridyl]-N-[3-methyl-5-(4-methylpiperazin-1-yl)phenyl]-1,2,4-triazol-3-amine] |  | ≤ 1
31 | Cc1cc(NCCC2CCCO2)cc(Nc2ncn(-c3cc(F)cc(F)c3)n2)c1 (stereo not drawn) [Compound 496, N1-[1-(3,5-difluorophenyl)-1,2,4-triazol-3-yl]-5-methyl-N3-(2-tetrahydrofuran-2-ylethyl)benzene-1,3-diamine] | 100 to 1000 | 1 to 10
